Assay results: patent US20200206198A1, “CFTR CHANNEL ACTIVATOR FOR USE IN THE TREATMENT AND/OR PREVENTION OF GLUTEN SENSITIVITY CONDITIONS” (priority 2017, published 2020)

Columns and labels:
CFTR = target: T1, CFTR (Homo sapiens, UniProt P13569); experiment: CFTR channel function in intestinal epithelial cells (forskolin-induced Isc in Ussing chambers; SPQ iodide efflux); format: cell-based; settings: VX-770 10 μM, VX-532 20 μM, Genistein 10 μM; Caco-2 or T84 cells
T1 construct: Immunoprecipitations of endogenous proteins were performed on 500 μg of lysates from Caco-2 cells; host or cells: Caco-2, T84
T1 sequence (P13569 whole entry): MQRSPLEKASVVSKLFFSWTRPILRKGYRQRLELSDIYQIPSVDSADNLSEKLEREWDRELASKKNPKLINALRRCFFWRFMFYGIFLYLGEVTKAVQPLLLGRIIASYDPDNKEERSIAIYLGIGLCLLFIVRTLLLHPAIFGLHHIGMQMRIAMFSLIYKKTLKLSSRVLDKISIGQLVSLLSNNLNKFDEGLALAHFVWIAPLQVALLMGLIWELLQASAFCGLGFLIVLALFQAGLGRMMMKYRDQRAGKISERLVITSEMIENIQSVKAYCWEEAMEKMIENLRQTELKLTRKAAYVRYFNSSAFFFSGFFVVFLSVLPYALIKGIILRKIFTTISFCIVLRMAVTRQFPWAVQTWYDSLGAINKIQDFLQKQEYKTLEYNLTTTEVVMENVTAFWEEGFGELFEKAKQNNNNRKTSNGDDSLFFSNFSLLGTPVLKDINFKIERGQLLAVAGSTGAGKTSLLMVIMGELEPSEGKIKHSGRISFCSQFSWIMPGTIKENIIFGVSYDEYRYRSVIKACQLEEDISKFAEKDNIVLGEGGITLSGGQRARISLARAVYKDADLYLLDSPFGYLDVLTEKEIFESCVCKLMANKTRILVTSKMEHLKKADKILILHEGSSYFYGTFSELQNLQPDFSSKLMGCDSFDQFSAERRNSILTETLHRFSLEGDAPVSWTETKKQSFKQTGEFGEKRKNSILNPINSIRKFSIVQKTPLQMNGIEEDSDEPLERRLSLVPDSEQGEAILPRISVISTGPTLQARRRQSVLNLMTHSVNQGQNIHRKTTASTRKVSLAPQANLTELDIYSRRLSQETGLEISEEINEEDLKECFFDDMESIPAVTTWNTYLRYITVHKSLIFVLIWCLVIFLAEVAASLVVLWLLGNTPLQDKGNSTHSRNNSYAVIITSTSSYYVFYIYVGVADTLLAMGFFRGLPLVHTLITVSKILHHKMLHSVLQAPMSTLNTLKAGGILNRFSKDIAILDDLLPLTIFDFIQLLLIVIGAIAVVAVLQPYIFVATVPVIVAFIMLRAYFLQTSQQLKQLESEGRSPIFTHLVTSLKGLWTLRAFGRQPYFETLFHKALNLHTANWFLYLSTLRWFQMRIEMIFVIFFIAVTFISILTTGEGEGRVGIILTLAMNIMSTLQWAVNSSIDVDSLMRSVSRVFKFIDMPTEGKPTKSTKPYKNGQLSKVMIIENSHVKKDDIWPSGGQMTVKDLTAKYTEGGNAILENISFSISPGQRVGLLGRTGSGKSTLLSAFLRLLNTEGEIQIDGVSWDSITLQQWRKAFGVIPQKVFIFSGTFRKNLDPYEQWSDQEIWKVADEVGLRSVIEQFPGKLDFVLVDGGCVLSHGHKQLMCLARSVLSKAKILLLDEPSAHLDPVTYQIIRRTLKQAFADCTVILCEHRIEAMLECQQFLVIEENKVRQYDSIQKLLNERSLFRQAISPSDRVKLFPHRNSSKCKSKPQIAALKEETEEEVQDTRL
Experimental: Human colon adenocarcinoma-derived Caco-2 and T84 cells (Barone, M. V. et al. 2014; Luciani, A. et al. 2010) were obtained from the ATCC. Cells were maintained in T25 flask in Modified Eagle Medium (MEM) for Caco-2, or Ham's F12+DMEM (1:1) for T84, supplemented with 10% fetal bovine serum (FBS), 2 mM Glutamine+1% Non Essential Amino Acids (NEAA) and the antibiotics penicillin\streptomycin (100 units/ml) (all reagents from Lonza). Caco-2 cells were grown in Transwells (Corning, 3470 or 3460) under the normal condition. Briefly, 8×10^4 or 5×10^5 cells were seeded in 6.5-mm diameter or 12-mm diameter, respectively, and grown until the RT reached 800 to 1,200 Ω·cm^2. Transwells with a pore size of 0.4 μm were used. Medium in both the apical and baso lateral chambers was changed every other day. Cells were treated with 20 μg/ml of either with the α-gliadin peptide comprising the P31-43 amino acid sequence of α-gliadin LGQQQPFPPQQPY (SEQ ID 1) (below referred to as P31-43), which is known to induce an enterocyte stress response (Meresse, B. et al.2009; Barone, M. V. et al. 2014; Luciani, A. et al. 2010), the T-cell activating α-gliadin peptide comprising the P57-68 amino acid sequence of α-gliadin (QLQPFPQPQLPY SEQ ID 2)) (below referred to as P57-68) (Maiuri, L., et al. 2003; Meresse, B. et al.2009; 30 Barone, M. V. et al. 2014), or the scrambled GAVAAVGVVAGA (SEQ ID 3) control peptide (below referred to as PGAV), or with different modified P31-43, either biotin-tagged or not, for different time points (from 1 h short challenge up to 24 h). Cells were also treated with 50 or 100 5 μg/ml of P57-68 or PGAV peptides for 3 h.
Caco-2 or T84 cells were also treated with: CFTR potentiators VX-770 (Ivacaftor) (10 μM) or VX-532 (20 μM) (Selleck chemicals) or Genistein (10 μM) (Verkman, A. S. et al. 2005; Jih, K. Y. et al. 2013) (Sigma-Aldrich) or in presence or absence of CFTR inhibitor172 (CFTRinh172, 20 μM).
Human colon adenocarcinoma-derived Caco-2 and T84 cells were obtained from the ATCC. Cells were maintained in T25 flask in Modified Eagle Medium (MEM) for Caco-2, or Ham's F12+DMEM (1:1) for T84, supplemented with 10% fetal bovine serum (FBS), 2 mM Glutamine+1% Non Essential Amino Acids (NEAA) and the antibiotics penicillin\streptomycin (100 units/ml) (all reagents from Lonza) (Luciani, A., et al. 2010. Cells were grown in Transwells (Corning, 3470 or 3460) under the normal condition (Luciani, A., et al. 2012). Briefly, 8×10^4 or 5×10^5 cells were seeded in 6.5-mm diameter or 12-mm diameter, respectively, and grown until the RT reached 800 to 1,200 Ω·cm2. Transwells with a pore size of 0.4 μm were used. Medium in both the apical and basolateral chambers was changed every other day. […]

Caco-2 cells = experiment: Endosomal trafficking proteins in Caco-2 cells (immunoblot, endosomal fractions); format: cell-based, human; settings: lost if 3-MA or CFTR inhibitor added
Experimental: (§1) Human colon adenocarcinoma-derived Caco-2 and T84 cells were obtained from the ATCC. Cells were maintained in T25 flask in Modified Eagle Medium (MEM) for Caco-2, or Ham's F12+DMEM (1:1) for T84, supplemented with 10% fetal bovine serum (FBS), 2 mM Glutamine+1% Non Essential Amino Acids (NEAA) and the antibiotics penicillin\streptomycin (100 units/ml) (all reagents from Lonza) (Luciani, A., et al. 2010. Cells were grown in Transwells (Corning, 3470 or 3460) under the normal condition (Luciani, A., et al. 2012). Briefly, 8×10^4 or 5×10^5 cells were seeded in 6.5-mm diameter or 12-mm diameter, respectively, and grown until the RT reached 800 to 1,200 Ω·cm2. Transwells with a pore size of 0.4 μm were used. Medium in both the apical and basolateral chambers was changed every other day. Cells were treated with 20 μg/ml of either α-gliadin peptide P31-43 or […] or scrambled PGAV or modified P31-43 either biotin-tagged or not, for different time point (from 1 h short challenge up to 24 h). Cells were also treated with 50 or 100 μg/ml of P57-68 or PGAV peptides for 3 h. Caco-2 or T84 cells were also treated with: CFTR potentiators VX-770 (10 μM) or VX-532 (20 μM) (Selleck chemicals) or Genistein (10 μM) (Sigma-Aldrich) or in presence or absence of CFTR inhibitor172 (CFTRinh172, 20 μM) or 3-methyl-adenine (3-MA, 20 μM) (Calbiochem), Z-DON (20 nM, Zedira) or BAPTA-AM (10 μM, Calbiochem).
The whole lysate or membrane fraction proteins of cell lines and mice intestine homogenates were obtained from treated and untreated cells or mice as described. The equal amount of protein were resolved by SDS-PAGE gel and blotted with antibodies against: SQSTM1, (Sigma Aldrich, 108k4767) 1:1000, PPARγ (Santa Cruz Biotechnology, sc7273) 1:500, BECN1 (Abcam, ab58878) 1:1000, CFTR clone M3A7 (Abcam, ab4067) 1:500, phospho-ERK1/2 (php42/44, Cell Signaling Technology, #91101) 1:1000, UVRAG (Santa Cruz Biotechnology sc8215) 1:1000, NHERF-1 (BD, 611161) 1:1000, EZRIN (BD, 610603) 1:1000, hVps34 (SigmaV9764) 1:300, biotin (Abcam, ab1227) 1:2000, PKAr2a (BD, 610625) 1:500, Ubiquitin (Cell Signaling clone P4D1, #3936) 1:1000, CHIP (Calbiochem PC711) 1:500, Caspase-1 p10 (M-20) (Santa Cruz Biotechnology, sc-514) 1:200, NLRP3 (Abcam, ab4207), 1:500, IDO1 (monoclonal; cv152) 1:1000^[80], used as primary antibodies. Normalization was performed by probing the membrane with anti-β-actin (Cell Signaling, #4970) 1:1000, anti-Gapdh (Sigma-Aldrich, G8795) 1:1000 and anti-flottilin (Abcam ab15148) 1:1000 antibodies. Immunoprecipitations of endogenous proteins were performed on 500 μg of lysates from Caco-2 cells. The proteins were incubated for 12-18 h at 4° C. with 10 ug\ml of specific antibody followed by the addition of Protein A/G-agarose beads for 4 h at 4° C. […]

PM-associated CFTR = target: T2, PM-associated CFTR (Homo sapiens, UniProt P13569); experiment: CFTR plasma membrane disposal in Caco-2 cells (membrane fractions); format: cell-based
T2 construct: Immunoprecipitations of endogenous proteins were performed on 500 μg of lysates from Caco-2 cells; host or cells: Caco-2, T84
T2 sequence (P13569 whole entry): as above
Experimental: as §1
The whole lysate or membrane fraction proteins of cell lines and mice intestine homogenates were obtained from treated and untreated cells or mice as described. The equal amount of protein were resolved by SDS-PAGE gel and blotted with antibodies against: SQSTM1, (Sigma Aldrich, 108k4767) 1:1000, PPARγ (Santa Cruz Biotechnology, sc7273) 1:500, BECN1 (Abcam, ab58878) 1:1000, CFTR clone M3A7 (Abcam, ab4067) 1:500, phospho-ERK1/2 (php42/44, Cell Signaling Technology, #91101) 1:1000, UVRAG (Santa Cruz Biotechnology sc8215) 1:1000, NHERF-1 (BD, 611161) 1:1000, EZRIN (BD, 610603) 1:1000, hVps34 (SigmaV9764) 1:300, biotin (Abcam, ab1227) 1:2000, PKAr2a (BD, 610625) 1:500, Ubiquitin (Cell Signaling clone P4D1, #3936) 1:1000, CHIP (Calbiochem PC711) 1:500, Caspase-1 p10 (M-20) (Santa Cruz Biotechnology, sc-514) 1:200, NLRP3 (Abcam, ab4207), 1:500, IDO1 (monoclonal; cv152) 1:1000^[80], used as primary antibodies. Normalization was performed by probing the membrane with anti-β-actin (Cell Signaling, #4970) 1:1000, anti-Gapdh (Sigma-Aldrich, G8795) 1:1000 and anti-flottilin (Abcam ab15148) 1:1000 antibodies. Immunoprecipitations of endogenous proteins were performed on 500 μg of lysates from Caco-2 cells. The proteins were incubated for 12-18 h at 4° C. with 10 ug\ml of specific antibody followed by the addition of Protein A/G-agarose beads for 4 h at 4° C. The beads were then washed three times with lysis buffer and Laemmli's sample buffer was added to the samples. The membranes were then blotted with: CFTR clone CF3 (Abcam, ab2784) 1:1000, TG2 (clone CUB7402; NeoMarkers) 1:1000, CHIP (Calbiochem PC711) 1:500, Ubiquitin (Cell Signaling clone P4D1 3936), isopeptide (Abcam 422) 1:1000, PKAR2 (BD 610625) 1:500.
Protein from membrane fractionation were obtained as described. Cells were homogenized with a PotterElvehjem pestle and centrifuged at 2300×g for 15 min at 4° C. […]

effect on P31-43-induced reduction of PM-associated CFTR (PM-associated CFTR): counteracted
SMILES: Cc1ccc(O)c(-c2cc(-c3ccccc3)[nH]n2)c1 [VX-532, 4-Methyl-2-(5-phenyl-1Hpyrazol-3-yl)-phenol]
prevention of P31-43 induced decrease of CFTR function (CFTR): Prevents P31-43 Induced Inhibition of CFTR Function | effect on P31-43-induced reduction of BECN1, hVps34, UVRAG, Rab5 and Rab7 (Caco-2 cells): counteracted
